Measured values from patent US20220169622A1, “AMPLIFICATION OF NUCLEIC ACIDS” (Abbott Molecular Inc., priority 2018, published 2022).
“Also recorded” adds a separate entry of the source.

Assays:
Type in all cases: biochemical
[1] = test system: non-specific amplification products; experiment: RT-PCR without template, EVA Green monitoring of non-specific amplification products (Example 1); conditions: 0.0015, 0.005, 0.01% (w/w) MIT (0.015, 0.05, 0.1% (w/w) PROCLIN 950); no template; compared to reactions without MIT
Source text: The primers and probes in the reaction mixtures target HIV-1 nucleic acids. The fluorescent DNA-intercalating dye, EVA Green, was included in each reaction to monitor the accumulation of non-specific amplification products. Realtime EVA Green fluorescence signals from RT-PCR reactions comprising […], 0.05. and 0.1% (w/w) PROCLIN 950 are shown in FIG. 1.

[2] = test system: non-specific amplification products; experiment: RT-PCR without HIV-1 target RNA after master mix incubation at 2 to 8° C. for 16 hours, EVA Green (Example 2); conditions: 0.0015, 0.005, 0.01% (w/w) MIT; master mix incubated at 2 to 8° C. for 16 hours; no HIV-1 target RNA; compared to reactions without MIT
Description: During the development of embodiments of the technology provided herein, experiments were conducted to simulate the preparation of bulk RT-PCR reagents by a commercial manufacturing process. In particular, prototype HIV-1 assay master mixes comprising 0, 0.015, 0.05, and 0.1% (w/w) PROCLIN 950 (corresponding to 0, 0.0015, 0.005, and 0.01% (w/w) MIT concentrations, respectively) were incubated at 2 to 8° C. for 16 hours. RT-PCR was then performed with each master mix in the absence of HIV-1 target RNA (2 replicates per condition). The fluorescent DNA-intercalating dye. EVA Green was included in each reaction to monitor the accumulation of non-specific amplification products. Realtime EVA Green fluorescence signals from RT-PCR reactions comprising 0, 0.015, 0.05, and 0.1% (w/w) PROCLIN 950 are shown in FIG. 2.

HIV-1 target RNA = experiment: Prototype HIV-1 assay RT-PCR with 50 copies of target RNA (Example 3); conditions: 0.015% (w/w) PROCLIN 950 (0.0015% (w/w) MIT); 50 copies of HIV-1 target RNA; compared to no PROCLIN 950
Description: During the development of embodiments of the technology provided herein, experiments were conducted to test RT-PCR in the presence of MIT in a prototype HIV-1 assay master mix. Prototype HIV-1 assay master mixes comprising 50 copies of HIV-1 target RNA and either 0.015% (w/w) PROCLIN 950 (0.0015% (w/w) MIT) or comprising no PROCLIN 950 were tested by RT-PCR (8 replicates each condition). HIV-specific realtime fluorescence signals from HIV-1 RT-PCR reactions comprising 0 or 0.015% (w/w) PROCLIN 950 are shown in FIG. 3.

Chlamydia trachomatis = experiment: Prototype CT/NG assay RT-PCR with 0.1 inclusion forming units (Example 4); conditions: 0.015% (w/w) PROCLIN 950 (0.0015% (w/w) MIT); 0.1 inclusion forming units of Chlamydia trachomatis; compared to no PROCLIN 950
Description: During the development of embodiments of the technology provided herein, experiments were conducted to test RT-PCR in the presence of MIT in a prototype CT/NG assay master mix. Prototype CT/NG assay master mixes comprising 0.1 inclusion forming units of Chlamydia trachomatis and either 0.015% (w/w) PROCLIN 950 (0.0015% (w/w) MIT) or comprising no PROCLIN 950 were tested by RT-PCR (8 replicates each condition). CT-specific realtime fluorescence signals from CT/NG RT-PCR reactions comprising 0 or 0.015% (w/w) PROCLIN 950 (0.0015% (w/w) MIT) are shown in FIG. 4. […] Further, the prototype CT/NG assay uses different primer and probe sets than the prototype HIV-1 assay described in Example 3.

Cn1sccc1=O [MIT, 2-methyl-4-isothiazolin-3-one]
non-specific product formation (EVA Green signal) [1]: reduces the accumulation of non-specific product; also recorded: decreased levels of non-specific product formation | non-specific product formation (EVA Green signal) [2]: reduces the accumulation of non-specific product during prolonged storage; also recorded: decreased levels of non-specific product formation | HIV-specific realtime fluorescence signal (RT-PCR performance) (HIV-1 target RNA): enhances RT-PCR performance | CT-specific realtime fluorescence signal (RT-PCR performance) (Chlamydia trachomatis): enhances RT-PCR performance
